The conditions of data set [1]: aqueous solution; cited from earlier work.
The nature of data set [2]: Inclusion stability of silybin injections containing different types of cyclodextrin, standing at room temperature. The data set is classed as physicochemical. As to conditions: 50 g of cyclodextrin in 1000 ml of water for injection. From the text: The types of cyclodextrin recorded in the Chinese patent application CN200410041364.0 include: β-cyclodextrin, hydroxypropyl-β-cyclodextrin, hydroxyethyl-β-cyclodextrin, methyl-β-cyclodextrin, glucosyl-β-cyclodextrin and sulfonyl-β-cyclodextrin. The cyclodextrin adopted in the present invention is sulfobutylether-β-cyclodextrin and is a specific inclusion material for the present invention. In contrast tests, silybin injections containing different types of cyclodextrin are respectively prepared by adopting the same formulation constituents, formulation dosage and preparation process. Standing is preformed at room temperature for one-week, and the inclusion stability of the injections is observed with the passage of time, that is, the time of medicine precipitation is regarded as a study index to screen the types of cyclodextrin.
Allow the injections to stand at room temperature for one week, and respectively observe the inclusion stability of the injections over time, i.e., study the influence of different types of cyclodextrins on the inclusion stability of silybin.

Data set [3] is described as follows: Verification of preparation method of CN02125823.6: discoloration and UV scanning for destructiveness of NaOH to silybin. The data set is classed as physicochemical. As to conditions: scanned within the wavelength of 190-600 nm. The source says: The Chinese patent application CN02125823.6 with the title “silymarin injection containing cyclodextrin or derivatives thereof” and the publication number of CN1391894A, according to the implementing scheme recorded in the Description, has the key technical features of adding silymarin into an aqueous solution containing cyclodextrin, regulating the pH of the solution to alkalinity using sodium hydroxide to dissolve silybin, and after dissolution, regulating the pH value to be 6.0 to 6.5 using hydrochloric acid to obtain a silymarin cyclodextrin inclusion compound. During verification, the silymarin is replaced with silybin, and the verification is strictly performed according to the implementing scheme described in embodiment 1 of the patent.
Dissolving 3 g of hydroxypropyl-β-cyclodextrin in 10 ml of water for injection, adding 300 mg of silybin, regulating the pH value to be 10 with 1N of NaOH solution, continuously stirring for 5 hours to dissolve the silybin, regulating the pH to be 6.5 with 1N of HCl solution, and performing filtration, bacterium removal, sub-packaging, freeze-drying and sealing, to obtain a silybin freeze-dried powder for injection.
However, for the preparation method of the present invention, the discoloration phenomenon is not found in the whole preparation process. […]

For data set [4] the following is noted: taken orally; Wu J W et al. 2007; cited from earlier work.
The conditions of data set [5]: Wang Hongchen 1983; cited from earlier work.

Regarding `CNC[C@H](O)[C@@H](O)[C@H](O)[C@H](O)CO.COc1cc(C2Oc3ccc(C4Oc5cc(O)cc(O)c5C(=O)C4O)cc3OC2CO)ccc1O` (centres unmarked) [silybin N-methylglucamine], in data set [1], the pH value result is reported as “about 11”.
Turning to `OC[C@H]1O[C@@H]2O[C@H]3[C@H](O)[C@@H](O)[C@@H](O[C@H]4[C@H](O)[C@@H](O)[C@@H](O[C@H]5[C@H](O)[C@@H](O)[C@@H](O[C@H]6[C@H](O)[C@@H](O)[C@@H](O[C@H]7[C@H](O)[C@@H](O)[C@@H](O[C@H]8[C@H](O)[C@@H](O)[C@@H](O[C@H]1[C@H](O)[C@H]2O)O[C@@H]8CO)O[C@@H]7CO)O[C@@H]6CO)O[C@@H]5CO)O[C@@H]4CO)O[C@@H]3CO` [β-cyclodextrin], in data set [2], the “dissolution of cyclodextrin in water” value is recorded as “cannot completely dissolve in water”.
For `COc1cc([C@@H]2Oc3cc([C@@H]4Oc5cc(O)cc(O)c5C(=O)[C@H]4O)ccc3O[C@H]2CO)ccc1O` [silybin, Silybin], the “UV absorption peaks (verification of destructiveness caused by NaOH to silybin)” value in data set [3] is on record as 287.5 nm. For the same compound, the absolute bioavailability in data set [4] is recorded as 0.95%. In addition, the “water solubility and lipid solubility” value in data set [5] is “poor”.

These data come from patent US10314923B2, “Silybin injection and preparation method therefor” (TASLY PHARMACEUTICAL GROUP CO., LTD., priority 2015, dated 2019).
